The results in this text go back to paper PMC12435400, “Thymidine Phosphorylase Inhibitory Potential and Molecular Docking Studies of Secondary Metabolites Isolated From Fernandoa adenophylla (Wall. ex G. Don) Steenis” (Chemistry & Biodiversity, 2025).

In assay [1] the target is T1, thymidine phosphorylase (EcTP) (Escherichia coli, UniProt P07650).
T1 construct: purchased
The assay is described as follows: biochemical. As for the experimental part: Mechanism‐based studies were carried out on the selected compounds, that is, 1, 2, and 5.
(§1) In this study, we utilized commercially available recombinant EcTP enzyme as a model for TP inhibition assessment due to its structural similarities with mammalian TP enzymes. Spectrophotometric TP inhibition assays were conducted by incubating 0.058 U of EcTP enzyme with 500 µM of test compounds at 30°C for 10 min. Subsequently, 1.5 mM of thymidine substrate was added, and absorbance changes were monitored for 10 min at 290 nm using a microplate reader. […] Mechanistic studies involved incubating the TP enzyme with varying inhibitor concentrations and substrate concentrations ranging from 0.1875 to 1.5 µM. Enzyme activity was assessed by measuring absorbance changes for an additional 10 min. Triplicate experiments were conducted for mechanistic investigations to ensure the results' robustness.
Chemical reactions were examined using kinetic studies to determine their rates, mode of inhibition, and the variables influencing these characteristics. The kind and mechanism of inhibition of derivatives are ascertained here. Test compounds (0.5–500 µM) were incubated with TP (0.058 U/200 µL) for 10 min at 30°C in mechanistic studies. The addition of various thymidine concentrations (varying from 0.1875 to 1.5 µM) then started the process. Thymidine cleavage was tracked at 290 nm for ten min straight using an ELISA plate reader (SpectraMax 384; Molecular Devices, San Jose, CA, USA).

For assay [2], the target named is T2, recombinant EcTP enzyme (thymidine phosphorylase) (Escherichia coli, UniProt P07650).
T2 construct: purchased
The assay is described as follows: biochemical. As for the experimental part:
as §1

Setting [3] is: dissociation constant from secondary replot of Lineweaver-Burk and Dixon plots, unit printed in text b13 only, read-out: Ki ± SEM.
Setting [4] is: thymidine as variable substrate.
The mark [5] stands for this setting: 500 µM test compound, 0.058 U EcTP, 1.5 mM thymidine, 30°C, read-out: % Inhibition.
[6] abbreviates: EcTP, thymidine substrate, absorbance at 290 nm, triplicate, read-out: IC50 ± SEM.

Where two headings read alike, the source gives them in different places.

T1 sequence (P07650 whole entry): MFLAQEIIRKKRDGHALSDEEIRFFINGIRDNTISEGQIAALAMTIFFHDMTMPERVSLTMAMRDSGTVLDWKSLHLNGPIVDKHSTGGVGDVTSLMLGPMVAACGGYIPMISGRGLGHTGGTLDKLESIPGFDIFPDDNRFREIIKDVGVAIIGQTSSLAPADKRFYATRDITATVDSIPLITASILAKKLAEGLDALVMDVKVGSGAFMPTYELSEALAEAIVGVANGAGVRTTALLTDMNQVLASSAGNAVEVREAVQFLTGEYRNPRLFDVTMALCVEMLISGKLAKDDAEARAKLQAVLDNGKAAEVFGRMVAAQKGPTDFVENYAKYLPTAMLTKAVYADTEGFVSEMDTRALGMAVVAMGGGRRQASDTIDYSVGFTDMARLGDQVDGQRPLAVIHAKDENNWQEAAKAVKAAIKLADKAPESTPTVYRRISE
T2 sequence (P07650 whole entry): as above

The term inhibition denotes how much of the control response was suppressed. In the case of `O=c1[nH]c(=O)c2cc[nH]c2[nH]1` [7‐Deazaxanthine, reference compound], the “Type of Inhibitor” value in assay [1] was “Non‐competitive”. Further, in assay [2], the inhibition at 500 µM came to 80.6%.
A word on the Ki: it is a dissociation constant, usually derived from enzyme kinetics or from competition with a known ligand. A word on the IC50: it is the concentration at which inhibition is half-maximal. As for `CC1(C)CCC2=C(O1)C(=O)c1ccccc1C2=O` [Alpha‐lapachone (2), Alpha‐lapachone], in assay [1] (setting [3]), the Ki is 4.9 ± 0.008 µM. For the same molecule, the “Type of Inhibitor” value in assay [1] (setting [4]) was “Non‐competitive”. For the same molecule, the inhibition at 500 µM in assay [2] (setting [5]) was found to be 88.3%. Besides, in assay [2] (setting [6]), the IC50 came to 3.6 ± 0.9 µM.
Regarding `CC1(C)C=CC2=C(O1)C(=O)c1ccccc1C2=O` [Dehydro‐α‐lapachone (4), Dehydro‐α‐lapachone], the inhibition at 500 µM in assay [2] (setting [5]) turned out to be 82.6%. Also, the IC50 in assay [2] (setting [6]) was 17.2 ± 1 µM.
In the case of `CC(C)=C(C)[C@H]1C[C@]2(C)OC3=C(C(=O)c4ccccc4C3=O)[C@H]3[C@@H]2[C@@]12C(=O)c1ccccc1[C@@]3(O)C2=O` [Peshawaraquinone (3), Peshawaraquinone], in assay [2] (setting [5]), the inhibition at 500 µM was 87.1%. For the same molecule, the IC50 in assay [2] (setting [6]) is 4.9 ± 0.8 µM.
`CC(C)=CCC1=C(O)C(=O)c2ccccc2C1=O` [Lapachol (1), Lapachol]: the Ki in assay [1] (setting [3]) is 4.6 ± 0.006 µM. Moreover, the “Type of Inhibitor” value in assay [1] (setting [4]) is “Non‐competitive”. Besides, the inhibition at 500 µM in assay [2] (setting [5]) worked out at 86.2%. Also, in assay [2] (setting [6]), the IC50 was found to be 2.3 ± 0.1 µM.
With `COC(=O)C1(O)c2ccccc2C(=O)C1(O)CC=C(C)C` (stereo not drawn) [Indanone derivative (5), Methyl‐1,2‐dihydroxy‐2‐(3‐methylbut‐2‐en‐1‐yl)‐3‐oxo‐2,3‐dihydro‐1H‐indene‐1carboxylate], the Ki in assay [1] stood at 7.1 ± 0.009 µM. Further, in assay [1] (setting [4]), the “Type of Inhibitor” value is listed as “Non‐competitive”. Further, in assay [2], the IC50 stood at 1.8 ± 0.5 µM and the inhibition at 500 µM was 91.3%.
